These compounds were tested against PI3Kβ (Homo sapiens (Human), UniProt P42338) (assay: TR-FRET enzymatic activity assay, PI3Kβ). Details: 2× Km ATP, 2 μM PIP2, 30 minutes at 25° C., read-out: IC50-PIP-Beta.
Format: biochemical
Method: The compounds of formula (I) were characterized for their enzymatic activity against the PI3K isoforms. The activities were measured using a time-resolved fluorescence resonance energy transfer (TR-FRET) assay. TR-FRET monitored the formation of 3,4,5-inositol triphosphate molecule that competed with fluorescently labeled PIPS for binding to the GRP-1 pleckstrin homology domain protein.
Class I PI3K isoforms were expressed and purified as heterodimeric recombinant proteins. All assay reagents and buffers for the TR-FRET assay were purchased from Millipore. […] The compounds were added to the assay solution and incubated for 30 minutes at 25° C.

PI3Kβ, sequence (P42338 whole entry): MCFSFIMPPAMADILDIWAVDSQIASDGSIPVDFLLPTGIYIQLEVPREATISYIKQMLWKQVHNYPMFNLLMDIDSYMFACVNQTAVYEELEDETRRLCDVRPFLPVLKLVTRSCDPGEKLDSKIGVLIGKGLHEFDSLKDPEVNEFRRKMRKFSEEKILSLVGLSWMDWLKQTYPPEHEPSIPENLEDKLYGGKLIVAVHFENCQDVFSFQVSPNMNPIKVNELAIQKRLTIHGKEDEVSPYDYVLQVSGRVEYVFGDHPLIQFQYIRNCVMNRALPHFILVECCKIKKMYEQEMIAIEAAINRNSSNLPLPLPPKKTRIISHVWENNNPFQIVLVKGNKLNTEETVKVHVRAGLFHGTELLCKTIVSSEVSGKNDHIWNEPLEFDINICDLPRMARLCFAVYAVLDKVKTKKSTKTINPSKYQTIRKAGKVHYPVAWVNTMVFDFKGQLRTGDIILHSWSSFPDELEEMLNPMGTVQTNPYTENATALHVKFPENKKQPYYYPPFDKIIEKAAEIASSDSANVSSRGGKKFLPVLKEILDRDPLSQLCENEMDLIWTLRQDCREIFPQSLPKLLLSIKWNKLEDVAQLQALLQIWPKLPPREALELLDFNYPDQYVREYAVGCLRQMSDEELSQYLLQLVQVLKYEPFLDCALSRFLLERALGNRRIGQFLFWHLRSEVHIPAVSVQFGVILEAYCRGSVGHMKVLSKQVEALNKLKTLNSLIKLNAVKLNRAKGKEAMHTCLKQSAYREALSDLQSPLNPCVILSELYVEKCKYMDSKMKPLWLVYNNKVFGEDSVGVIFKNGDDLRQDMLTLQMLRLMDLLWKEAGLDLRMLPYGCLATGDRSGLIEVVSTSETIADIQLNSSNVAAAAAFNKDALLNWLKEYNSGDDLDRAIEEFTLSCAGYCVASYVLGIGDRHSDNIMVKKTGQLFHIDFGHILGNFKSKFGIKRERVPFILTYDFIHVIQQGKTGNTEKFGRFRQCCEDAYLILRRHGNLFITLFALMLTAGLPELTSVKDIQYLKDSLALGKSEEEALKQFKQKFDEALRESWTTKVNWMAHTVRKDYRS
PI3Kβ, sequence (P27986 whole entry partner): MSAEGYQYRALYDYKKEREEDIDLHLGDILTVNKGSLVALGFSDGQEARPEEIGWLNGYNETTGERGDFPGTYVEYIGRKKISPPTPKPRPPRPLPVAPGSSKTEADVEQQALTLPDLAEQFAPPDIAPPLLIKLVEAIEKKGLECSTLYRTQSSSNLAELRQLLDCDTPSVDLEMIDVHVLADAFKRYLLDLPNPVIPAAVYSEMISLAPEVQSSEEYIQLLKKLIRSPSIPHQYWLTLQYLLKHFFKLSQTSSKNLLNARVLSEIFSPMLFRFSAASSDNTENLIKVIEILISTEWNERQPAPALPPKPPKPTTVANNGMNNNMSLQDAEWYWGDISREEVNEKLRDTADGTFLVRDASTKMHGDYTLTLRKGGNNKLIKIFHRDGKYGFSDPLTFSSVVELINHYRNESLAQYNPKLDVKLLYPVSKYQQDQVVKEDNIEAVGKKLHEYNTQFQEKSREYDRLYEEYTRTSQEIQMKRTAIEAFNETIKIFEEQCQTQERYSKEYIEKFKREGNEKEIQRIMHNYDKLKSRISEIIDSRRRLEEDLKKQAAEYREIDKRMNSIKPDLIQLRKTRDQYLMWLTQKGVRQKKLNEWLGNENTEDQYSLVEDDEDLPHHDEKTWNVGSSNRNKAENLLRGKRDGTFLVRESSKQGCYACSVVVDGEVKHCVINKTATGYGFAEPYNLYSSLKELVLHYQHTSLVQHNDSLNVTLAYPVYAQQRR

Q: For `Cc1nc2c(-c3nnc[nH]3)cc(-c3ccnc(C#N)c3)cc2n1-c1ccnc2c(F)ccc(Cl)c12` (single isomer, unassigned) [Example 123, 4-(1-(5-chloro-8-fluoroquinolin-4-yl)-2-methyl-4-(4H-1,2,4-triazol-3-yl)-1H-benzo[d]imidazol-6-yl)picolinonitrile], which IC50 is on record?
A: 8 nM

Q: How did the IC50 turn out when `Cc1nc2c(-c3nnc[nH]3)cc(-c3ccnc(C#N)c3)cc2n1-c1ccnc2c(F)ccc(Cl)c12` (single isomer, unassigned) [Example 124, 4-(1-(5-chloro-8-fluoroquinolin-4-yl)-2-methyl-4-(4H-1,2,4-triazol-3-yl)-1H-benzo[d]imidazol-6-yl)picolinonitrile] was run?
A: 160 nM

Q: For `Cc1nc2c(-c3nnc[nH]3)cc(-c3ccnc(C#N)c3)cc2n1-c1ccnc2cccc(Cl)c12` (single isomer, unassigned) [Example 125, 4-(1-(5-chloroquinolin-4-yl)-2-methyl-4-(4H-1,2,4-triazol-3-yl)-1H-benzo[d]imidazol-6-yl)picolinonitrile], which IC50 is on record?
A: 110 nM

Q: Which IC50 does the source give for `Cc1nc2c(-c3nnc[nH]3)cc(-c3ccnc(C#N)c3)cc2n1-c1ccnc2cccc(Cl)c12` (single isomer, unassigned) [Example 126, 4-(1-(5-chloroquinolin-4-yl)-2-methyl-4-(4H-1,2,4-triazol-3-yl)-1H-benzo[d]imidazol-6-yl)picolinonitrile] here?
A: 780 nM

Q: For `Cc1nc2c(-c3nnc[nH]3)cc(-c3ccnc(C#N)c3)cc2n1-c1ccnc2c(F)cccc12` (single isomer, unassigned) [Example 127, 4-(1-(8-fluoroquinolin-4-yl)-2-methyl-4-(4H-1,2,4-triazol-3-yl)-1H-benzo[d]imidazol-6-yl)picolinonitrile], which IC50 is on record?
A: 9 nM

Q: With `Cc1nc2c(-c3nnc[nH]3)cc(-c3ccnc(C#N)c3)cc2n1-c1ccnc2c(F)cccc12` (single isomer, unassigned) [Example 128, 4-(1-(8-fluoroquinolin-4-yl)-2-methyl-4-(4H-1,2,4-triazol-3-yl)-1H-benzo[d]imidazol-6-yl)picolinonitrile] as the compound, how does the IC50 read?
A: 360 nM

Q: How did the IC50 turn out when `Cc1nc2c(-c3nnc[nH]3)cc(-c3ccnc(C#N)c3)cc2n1-c1ccnc2c(Cl)cccc12` (single isomer, unassigned) [Example 129, 4-(1-(8-chloroquinolin-4-yl)-2-methyl-4-(4H-1,2,4-triazol-3-yl)-1H-benzo[d]imidazol-6-yl)picolinonitrile] was run?
A: 3 nM

Q: Which IC50 does the source give for `Cc1nc2c(-c3nnc[nH]3)cc(-c3ccnc(C#N)c3)cc2n1-c1ccnc2c(Cl)cccc12` (single isomer, unassigned) [Example 130, 4-(1-(8-chloroquinolin-4-yl)-2-methyl-4-(4H-1,2,4-triazol-3-yl)-1H-benzo[d]imidazol-6-yl)picolinonitrile] here?
A: 57 nM

Q: Which IC50 does the source give for `Cc1nc2c(-c3nnc[nH]3)cc(-c3ccnc(C#N)c3)cc2n1-c1ccnc2cccc(F)c12` (single isomer, unassigned) [Example 131, 4-(1-(5-fluoroquinolin-4-yl)-2-methyl-4-(4H-1,2,4-triazol-3-yl)-1H-benzo[d]imidazol-6-yl)picolinonitrile] here?
A: 2 nM

Q: `Cc1nc2c(-c3nnc[nH]3)cc(-c3ccnc(C#N)c3)cc2n1-c1ccnc2cccc(F)c12` (single isomer, unassigned) [Example 132, 4-(1-(5-fluoroquinolin-4-yl)-2-methyl-4-(4H-1,2,4-triazol-3-yl)-1H-benzo[d]imidazol-6-yl)picolinonitrile] was tested. Which IC50 did it give?
A: 54 nM

Q: For `Cc1nc2c(-c3nnc[nH]3)cc(-c3ccnc(F)c3)cc2n1-c1ccnc2c(F)ccc(F)c12` (single isomer, unassigned) [Example 133, 5,8-difluoro-4-(6-(2-fluoropyridin-4-yl)-2-methyl-4-(4H-1,2,4-triazol-3-yl)-1H-benzo[d]imidazol-1-yl)quinoline], which IC50 is on record?
A: 2 nM

Q: `Cc1nc2c(-c3nnc[nH]3)cc(-c3ccnc(F)c3)cc2n1-c1ccnc2c(F)ccc(F)c12` (single isomer, unassigned) [Example 134, 5,8-difluoro-4-(6-(2-fluoropyridin-4-yl)-2-methyl-4-(4H-1,2,4-triazol-3-yl)-1H-benzo[d]imidazol-1-yl)quinoline] was tested. Which IC50 did it give?
A: 400 nM

Q: For `Cc1nc2c(-c3nnc[nH]3)cc(-c3ccnc(C#N)c3)cc2n1-c1ccnc2c(Cl)ccc(F)c12` (single isomer, unassigned) [Example 135, 4-(1-(8-chloro-5-fluoroquinolin-4-yl)-2-methyl-4-(4H-1,2,4-triazol-3-yl)-1H-benzo[d]imidazol-6-yl)picolinonitrile], which IC50 is on record?
A: 4 nM

Q: How did the IC50 turn out when `Cc1nc2c(-c3nnc[nH]3)cc(-c3ccnc(C#N)c3)cc2n1-c1ccnc2c(Cl)ccc(F)c12` (single isomer, unassigned) [Example 136, 4-(1-(8-chloro-5-fluoroquinolin-4-yl)-2-methyl-4-(4H-1,2,4-triazol-3-yl)-1H-benzo[d]imidazol-6-yl)picolinonitrile] was run?
A: 220 nM

Q: How did the IC50 turn out when `Cc1nc2c(-c3nnc[nH]3)cc(-c3ccncc3F)cc2n1-c1ccnc2c(Cl)cccc12` (single isomer, unassigned) [Example 137, 8-chloro-4-(6-(3-fluoropyridin-4-yl)-2-methyl-4-(4H-1,2,4-triazol-3-yl)-1H-benzo[d]imidazol-1-yl)quinoline] was run?
A: 10 nM

Q: `Cc1nc2c(-c3nnc[nH]3)cc(-c3ccncc3F)cc2n1-c1ccnc2c(Cl)cccc12` (single isomer, unassigned) [Example 138, 8-chloro-4-(6-(3-fluoropyridin-4-yl)-2-methyl-4-(4H-1,2,4-triazol-3-yl)-1H-benzo[d]imidazol-1-yl)quinoline] was tested. Which IC50 did it give?
A: 99 nM

Q: `Cc1nc2c(-c3nnc[nH]3)cc(-c3ccncc3)cc2n1-c1ccnc2c(F)ccc(F)c12` (single isomer, unassigned) [Example 140, 5,8-difluoro-4-(2-methyl-6-(pyridin-4-yl)-4-(4H-1,2,4-triazol-3-yl)-1H-benzo[d]imidazol-1-yl)quinoline] was tested. Which IC50 did it give?
A: 540 nM

Q: Which IC50 does the source give for `Cc1cc(-c2cc(-c3nnc[nH]3)c3nc(C)n(-c4ccnc5c(F)ccc(F)c45)c3c2)ccn1` (single isomer, unassigned) [Example 141, 5,8-difluoro-4-(2-methyl-6-(2-methylpyridin-4-yl)-4-(4H-1,2,4-triazol-3-yl)-1H-benzo[d]imidazol-1-yl)quinoline] here?
A: 120 nM

Q: How did the IC50 turn out when `Cc1cc(-c2cc(-c3nnc[nH]3)c3nc(C)n(-c4ccnc5c(F)ccc(F)c45)c3c2)ccn1` (single isomer, unassigned) [Example 142, 5,8-difluoro-4-(2-methyl-6-(2-methylpyridin-4-yl)-4-(4H-1,2,4-triazol-3-yl)-1H-benzo[d]imidazol-1-yl)quinoline] was run?
A: 11 nM

Q: Which IC50 does the source give for `Cc1nc2c(C(=O)O)cc(-c3ccncc3)cc2n1-c1ccnc2c(Cl)cccc12` [Example 1] here?
A: 34 nM

Q: `Cc1nc2c(C(=O)O)cc(-c3ccnc(N)n3)cc2n1-c1ccnc2c(Cl)cccc12` [Example 2] was tested. Which IC50 did it give?
A: 13 nM

Q: For `Cc1nc2c(C(=O)O)cc(-c3ncnc4[nH]cnc34)cc2n1-c1ccnc2c(Cl)cccc12` [Example 3], which IC50 is on record?
A: 2800 nM

Q: Which IC50 does the source give for `Cc1nc2c(C(=O)O)cc(-c3ccnc(N)c3F)cc2n1-c1ccnc2c(F)ccc(F)c12` [Example 4, 6-(2-amino-3-fluoropyridin-4-yl)-1-(5,8-difluoroquinolin-4-yl)-2-methyl-1H-benzo[d]imidazole-4-carboxylic acid] here?
A: 20 nM

From patent publication US10227350B2 (Gilead Sciences, Inc., priority 2016, dated 2019)
